Assay results taken from PubChem BioAssay (NCI).
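Growth conditions: 96-well plates. Treatment: test compound, 48 hours, 5 concentrations. Analysis: linear interpolation between bracketing concentrations; unreached endpoints set to highest concentration. GI50 is the concentration that inhibits growth by half. TGI: total growth inhibition.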

Assays:
Assay in all cases: growth of human tumour cells (NCI), 48 h
SK-MEL-2 melanoma = test system: SK-MEL-2 melanoma
HCT-15 colon = test system: HCT-15 colon
UACC-257 melanoma = test system: UACC-257 melanoma
SR leukemia = test system: SR leukemia
SK-OV-3 ovarian = test system: SK-OV-3 ovarian
LOX IMVI melanoma = test system: LOX IMVI melanoma
CAKI-1 renal = test system: CAKI-1 renal
MDA-MB-231 breast = test system: MDA-MB-231 breast
EKVX NSCLC = test system: EKVX NSCLC
HCC-2998 colon = test system: HCC-2998 colon

Row | Structure (SMILES) | GI50 (SK-MEL-2 melanoma) [µM] | TGI (SK-MEL-2 melanoma) [µM] | GI50 (HCT-15 colon) [µM] | TGI (HCT-15 colon) [µM] | GI50 (UACC-257 melanoma) [µM] | TGI (UACC-257 melanoma) [µM] | GI50 (SR leukemia) [µM] | TGI (SR leukemia) [µM] | GI50 (SK-OV-3 ovarian) [µM] | TGI (SK-OV-3 ovarian) [µM] | GI50 (LOX IMVI melanoma) [µM] | TGI (LOX IMVI melanoma) [µM] | GI50 (CAKI-1 renal) [µM] | TGI (CAKI-1 renal) [µM] | GI50 (MDA-MB-231 breast) [µM] | TGI (MDA-MB-231 breast) [µM] | GI50 (EKVX NSCLC) [µM] | TGI (EKVX NSCLC) [µM] | GI50 (HCC-2998 colon) [µM] | TGI (HCC-2998 colon) [µM]
1 | O=S(=O)(Nc1ccc2ccccc2c1)c1ccc(-c2cnc(C3CC3)o2)cc1 | 1.43 | 20.6 | 0.557 | 19.2 | 10.4 | 31.5 | 0.377 | > 100 | 1.54 | 32.3 | 0.725 | 17.1 | 0.539 | 38 | 2.81 | 14.2 | 2.76 | 59.9 | 1.48 | 6.06
2 | COc1ccc2c(c1)N(CCO)C1=C(C(=O)OC1)C2c1ccccc1 (stereo not given) | 1.61 | 4.74 | 1.94 | > 50 | 1.87 | > 50 | 1.69 | > 50 | 1.9 | > 50 | 2.92 | > 50 | 1.15 | > 50 | 5.99 | 41.7 | 2.39 | > 50 | 3.21 | > 50
3 | C1CCN2CC3CCCN4CCCC(C2C1)C34 (stereo not given) | – | > 100 | – | > 100 | – | > 100 | – | > 100 | – | > 100 | – | > 100 | – | > 100 | – | > 100 | – | > 100 | – | > 100
4 | N#Cc1c(N)nc(N2CCSCC2)c(C#N)c1-c1ccc(O)cc1 | 51 | > 100 | 17.6 | 54.1 | 21.9 | 52.6 | 11.2 | 38.1 | 24.5 | 98.9 | 15.2 | 30.3 | 26.7 | > 100 | 12.4 | 27.5 | 27.5 | > 100 | 17.2 | 36.6
5 | O=C(Nc1cccnc1)c1ccc2ccc3ccc(C(=O)Nc4cccnc4)nc3c2n1 | 0.911 | > 100 | 0.0518 | > 100 | – | – | 0.155 | > 100 | – | – | 0.18 | > 100 | 0.135 | > 100 | 0.226 | > 100 | 0.294 | > 100 | 0.0648 | > 100
6 | CCN(CC)CC(C)(C)C(=O)/C=C/c1ccc(/C=C/C(=O)C(C)(C)CN(CC)CC)cc1 | – | 3.32 | – | 0.901 | – | 4.26 | – | 0.758 | – | 4.08 | – | 1.04 | – | 1.99 | – | 0.756 | – | 3.67 | – | 1.56
7 | CC(=O)O[C@H]1C(=O)[C@@]2(C)[C@H]([C@H](OC(=O)c3ccccc3)[C@@]3(O)C[C@H](O)C(C)=C1C3(C)C)[C@]1(OC(C)=O)CO[C@@H]1C[C@@H]2O | – | > 100 | – | > 100 | – | > 100 | – | > 100 | – | 69.1 | – | > 100 | – | > 100 | – | > 100 | – | > 100 | – | –
8 | COc1cc(-c2ccc(NC(=O)NC3CC3)c(OC)c2)ccc1NC(=O)NC1CC1 | 35.5 | > 100 | 1.1 | > 100 | 12.4 | > 100 | 0.446 | – | 23.8 | > 100 | 3.15 | > 83.8 | 6.2 | > 60.7 | 11.6 | > 100 | > 100 | > 100 | 28 | > 100
9 | C/C=C(/C)C(=O)OC1C=C(CO)C(=O)C(OC(=O)C(C)(O)C(C)Cl)C1C(C)C (stereo not given) | 2.06 | 4.29 | 0.772 | 2.36 | 1.42 | 3.32 | 0.255 | 2.16 | 4.5 | 14.9 | 1.31 | 2.82 | 1.61 | 2.98 | 0.758 | 2.26 | 2.19 | 4.9 | 1.79 | 3.35
10 | CC[C@]12C=CCN3CC[C@@]4(c5ccc(OC)cc5N(C)[C@H]4[C@@](O)(C(=O)OC)[C@@H]1OC(=O)CCC(=O)N[C@H](Cc1c[nH]c4ccccc14)C(=O)OC)[C@@H]32 | 17 | 37.3 | 3.51 | 16.7 | 6 | 23.1 | 3.55 | > 100 | 15.5 | 33.7 | – | – | 3.65 | 17 | 2.83 | 9.54 | 10.7 | 35.7 | 6.01 | 37.9
11 | COC(=O)c1ccc2c(c1)c1c(C)c3ccncc3c(C)c1n2C | 0.75 | 31.6 | 0.215 | 21.2 | – | – | 0.0575 | 3.39 | 0.471 | > 100 | 0.0887 | 10.8 | – | – | 0.391 | > 100 | 0.274 | 36.2 | 3.86 | > 100
12 | CC1CCc2c(c(CC3CC(=O)NC(=O)C3)nn2-c2ccccc2)C1 (stereo not given) | – | > 100 | – | > 100 | – | > 100 | – | > 100 | – | > 100 | – | > 100 | – | > 100 | – | > 100 | – | > 100 | – | > 100
13 | CC1=NN(C(=O)c2ccncc2)C(=O)C1N=Nc1ccc2ccccc2c1 (stereo not given) | – | > 95.2 | – | > 100 | – | > 100 | – | > 31.7 | – | > 100 | – | > 100 | – | > 100 | – | > 100 | – | > 100 | – | 15.2
14 | CCc1nc2cc(/C=C/C(=O)NO)ccc2c(=O)n1CCc1ccc(F)cc1 | 2.9 | 6.59 | 1.57 | 39.6 | 2.24 | 5.92 | 1.74 | > 100 | 1.93 | 4.3 | 1.35 | 2.78 | 2.27 | 6.12 | 1.32 | 4.67 | 2.44 | 7.21 | 1.59 | 3.95
15 | CO[C@@H]1[C@H]2[C@@H](C)c3ccoc3C[C@@H]2[C@@]2(C)CC[C@H](OC(=O)c3ccccc3)[C@](C)(C(=O)O)[C@]2(O)[C@@H]1OC(=O)c1ccccc1 | 24.1 | > 50 | 7.93 | 16.3 | 15.9 | 40.7 | 10.9 | > 50 | – | – | 6.73 | 13.6 | 7.46 | 15.6 | 6.07 | 16 | 11.1 | 45.6 | – | –
16 | CC(CCCC1SCC2NC(=O)NC21)C(=O)O (stereo not given) | – | > 100 | – | > 100 | – | – | – | > 100 | – | > 100 | – | > 100 | – | > 100 | – | > 100 | – | > 100 | – | –
17 | COc1ccc(/C=C2\CC(C)CC3C2=NN(c2ccccc2)C3c2ccc(OC)c(OC)c2)cc1OC (stereo not given) | 8.8 | > 100 | 1.98 | 4.38 | 7.94 | > 100 | 2.82 | 12.4 | 9.29 | > 100 | 2.19 | 4.8 | 6.47 | > 100 | 3.24 | 13.2 | 5.61 | > 100 | 1.69 | 3.13
18 | O=C(Nc1nc(-c2ccc(Cl)cc2)nc2c1sc(=S)n2-c1ccccc1)C(F)(F)F | 5.8 | 22.7 | 6.46 | > 100 | 10.7 | 60 | 4.76 | 20.1 | 2.71 | 8.1 | 2.43 | 6.46 | 4 | 16 | 3.64 | 12.5 | 3.83 | 31.8 | 10.3 | > 100
19 | Nc1nc(N)c(N=Nc2ccc(C(=O)O)c(O)c2)c(N)n1 | – | > 100 | – | > 100 | – | > 100 | – | > 100 | – | > 100 | – | > 100 | – | > 100 | – | > 100 | – | > 100 | – | –
20 | C=C1NC(=O)C(CC(C(=O)C(=O)Nc2c(C)cccc2C(C)(C)C)C(=O)c2ccc3ccccc3c2)C(=O)N1 (stereo not given) | – | > 100 | – | > 100 | – | > 100 | – | > 100 | – | > 100 | – | > 100 | – | > 100 | – | > 100 | – | – | – | > 100
21 | Cc1cc(NNC(=O)c2ccccc2O)nc(Nc2nc3ccccc3o2)n1 | 2.24 | 13.3 | 1.17 | > 39.5 | 3.25 | 11.5 | 0.602 | 7.31 | 0.633 | 2.22 | 0.607 | 4.41 | 1.73 | 14.3 | 0.71 | 16.2 | 2.81 | 15.2 | 2.13 | 13.8
22 | Cc1cn2c(/C=C3/C(=O)Nc4ccc(F)cc43)c(C)nc2s1 | 8.76 | > 50 | 2.73 | > 50 | 36.2 | > 50 | 1.67 | 5.14 | 10.6 | > 50 | 10.3 | > 50 | 9.21 | > 50 | 12.1 | > 50 | 17.3 | > 50 | – | –
23 | CC[C@@H](C)Nc1cc(C(=O)NC2CC3CCC(C2)N3c2ccc(C(=O)C3CC3)cn2)c(C)cc1C(N)=O (stereo not given in full) | 0.0661 | 19 | 0.0317 | > 100 | 0.04 | 32 | 0.0189 | > 47.6 | < 0.0114 | > 100 | 0.0301 | 0.102 | 0.0597 | > 100 | 0.0538 | > 100 | – | – | 0.0395 | 13.5
24 | O=C(Nc1cccc(Cl)c1)c1cc(N=Nc2ccc([N+](=O)[O-])cc2Cl)ccc1O | 1.81 | 4.04 | 1.89 | 5.85 | 2.55 | 6.52 | 1.6 | 4.29 | 1.94 | 6.63 | 3.02 | 10.8 | 1.93 | 4.02 | 2.03 | 5.27 | 2.16 | 6.57 | 1.95 | 5.53
25 | CC(C)CCC(=O)[C@@H](C)[C@H]1[C@@H](OC2OCC(O)C(O)C2NS(C)(=O)=O)C[C@H]2[C@@H]3CC=C4C[C@@H](O)CC[C@]4(C)[C@H]3CC[C@]12C (stereo not given in full) | 0.739 | 2.27 | 2.23 | 9.44 | 0.922 | 2.31 | 1.03 | 8.39 | 1.27 | 5.04 | 1.19 | 5.22 | 1.16 | 5.56 | 2 | 8.65 | 1.46 | 8.85 | 5.04 | 11.7
26 | C=C1CCC2C3(C)COC(c4ccc(Cl)cc4)OC3CCC2(C)C1/C=C/C1=CCOC1=O (stereo not given) | 17.9 | > 100 | 4.79 | > 100 | 4.63 | > 100 | 1.37 | > 100 | 16.7 | 74.5 | 0.985 | 17.6 | 6.87 | > 100 | 6.68 | > 100 | 0.751 | 29.8 | 6.73 | > 100
27 | CCOc1c(C#N)c2c(N)ncnc2n1C1OC(CO)C(O)C1O (stereo not given) | 8.61 | 28.3 | 2.15 | > 100 | 13.7 | > 77.3 | 1.3 | 5.5 | 3.34 | 53.1 | 2.98 | > 100 | 3.13 | 55.9 | 6.15 | > 82.9 | 4.74 | > 100 | 3.92 | 28.2
28 | O=c1c(-c2ccc(O)cc2)coc2cc(OC3OC(CO)C(O)C(O)C3O)cc(O)c12 (stereo not given) | > 100 | > 100 | – | > 100 | – | > 100 | > 10 | > 100 | > 100 | > 100 | – | > 100 | > 10 | > 100 | – | > 100 | – | > 100 | – | > 100
